Experimental findings from US12673975B2, “Cyclic peptide, cell scaffold material, cell separating material, and medium” (FUJIFILM Corporation, priority 2019, dated 2026) are described below.

Data set [1] in a line: Evaluation of molecule stability (alkali treatment, residual rate by LC/MS). The data set is classed as physicochemical. Conditions: alkali treatment, residual rate by LC/MS. In short, it runs like this: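 500 μM aqueous cyclic peptide mixed with an equal volume of 1 M NaOH and held 3 h at 15 °C. Residual rate is total LC/MS peak area after treatment relative to untreated (100%), using a C18 column, pH 3 ammonium formate/acetonitrile gradient, 45 °C, ESI±.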

A further data set deals with human integrin αvβ5 (Homo sapiens, UniProt P06756+P18084). Description: Evaluation of integrin binding property (surface plasmon resonance, Biacore 3000, immobilized cyclic peptide). Particulars: surface plasmon resonance, immobilized cyclic peptide, human integrin αvβ5; read-out: Binding activity (integrin binding property, dissociation constant rank). In short, it runs like this:
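SPR with cyclic peptide amine-coupled via EDC/NHS to a CM5 chip, blank channel as reference. Integrin αvβ5 at 30, 100, 300 and 1,000 nM injected 10 min at 25 °C in HEPES buffer pH 7.4 with 5 mM MgCl2, 30 min buffer flow, EDTA regeneration; Kd from reference-subtracted signals, graded by category.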
On the technique in general: SPR reads the build-up and loss of mass on a sensor chip optically.

SMILES strings stand for the structures. Starred links: 1 amine or outer side, 2 acyl side, 3 side chain; linkers in the order of their positions; H or OH if unused. Positions of bridges follow the written chain, without caps; N, C: chain ends. Non-standard residues stand in square brackets, D forms with d. Residues, ends and D or L forms follow the SMILES beside them. Pen = CC(C)(S)[C@H](N)C(=O)O; Orn = NCCC[C@H](N)C(=O)O; Dab = NCC[C@H](N)C(=O)O; Dap = NC[C@H](N)C(=O)O; X1 = O=C(C[*:2])[*:1]; X2 = O=C(C[*:1])[*:2] Bounds are passed on as bounds.

Sequence of human integrin αvβ5 (P06756 31-1048): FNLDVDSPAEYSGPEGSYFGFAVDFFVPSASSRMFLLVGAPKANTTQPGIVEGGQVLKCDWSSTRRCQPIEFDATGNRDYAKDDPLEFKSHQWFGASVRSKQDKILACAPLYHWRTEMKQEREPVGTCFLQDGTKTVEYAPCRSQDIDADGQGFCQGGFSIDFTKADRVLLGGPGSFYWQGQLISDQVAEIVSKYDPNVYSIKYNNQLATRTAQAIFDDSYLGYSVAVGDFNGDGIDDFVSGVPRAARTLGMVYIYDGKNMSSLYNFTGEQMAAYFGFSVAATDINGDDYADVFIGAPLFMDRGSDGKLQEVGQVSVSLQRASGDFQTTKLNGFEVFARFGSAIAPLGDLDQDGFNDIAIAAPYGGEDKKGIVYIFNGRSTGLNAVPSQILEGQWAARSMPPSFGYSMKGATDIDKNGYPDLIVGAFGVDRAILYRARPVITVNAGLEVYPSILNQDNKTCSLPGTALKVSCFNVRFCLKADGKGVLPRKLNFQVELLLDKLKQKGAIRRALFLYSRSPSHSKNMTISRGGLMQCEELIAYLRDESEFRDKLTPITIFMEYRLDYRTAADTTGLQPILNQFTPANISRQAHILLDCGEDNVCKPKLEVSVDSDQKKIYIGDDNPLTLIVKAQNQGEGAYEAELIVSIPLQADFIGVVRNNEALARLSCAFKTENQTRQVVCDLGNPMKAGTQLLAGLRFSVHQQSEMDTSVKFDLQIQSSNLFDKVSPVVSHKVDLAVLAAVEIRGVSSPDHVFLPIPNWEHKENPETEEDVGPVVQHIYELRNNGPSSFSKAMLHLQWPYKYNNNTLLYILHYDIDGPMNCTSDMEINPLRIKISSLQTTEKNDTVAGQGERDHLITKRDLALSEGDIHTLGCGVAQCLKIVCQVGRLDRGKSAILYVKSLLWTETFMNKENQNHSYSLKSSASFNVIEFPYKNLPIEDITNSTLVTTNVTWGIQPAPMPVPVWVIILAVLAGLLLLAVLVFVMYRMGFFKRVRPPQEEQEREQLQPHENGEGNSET
Sequence of human integrin αvβ5 (P18084 24-799): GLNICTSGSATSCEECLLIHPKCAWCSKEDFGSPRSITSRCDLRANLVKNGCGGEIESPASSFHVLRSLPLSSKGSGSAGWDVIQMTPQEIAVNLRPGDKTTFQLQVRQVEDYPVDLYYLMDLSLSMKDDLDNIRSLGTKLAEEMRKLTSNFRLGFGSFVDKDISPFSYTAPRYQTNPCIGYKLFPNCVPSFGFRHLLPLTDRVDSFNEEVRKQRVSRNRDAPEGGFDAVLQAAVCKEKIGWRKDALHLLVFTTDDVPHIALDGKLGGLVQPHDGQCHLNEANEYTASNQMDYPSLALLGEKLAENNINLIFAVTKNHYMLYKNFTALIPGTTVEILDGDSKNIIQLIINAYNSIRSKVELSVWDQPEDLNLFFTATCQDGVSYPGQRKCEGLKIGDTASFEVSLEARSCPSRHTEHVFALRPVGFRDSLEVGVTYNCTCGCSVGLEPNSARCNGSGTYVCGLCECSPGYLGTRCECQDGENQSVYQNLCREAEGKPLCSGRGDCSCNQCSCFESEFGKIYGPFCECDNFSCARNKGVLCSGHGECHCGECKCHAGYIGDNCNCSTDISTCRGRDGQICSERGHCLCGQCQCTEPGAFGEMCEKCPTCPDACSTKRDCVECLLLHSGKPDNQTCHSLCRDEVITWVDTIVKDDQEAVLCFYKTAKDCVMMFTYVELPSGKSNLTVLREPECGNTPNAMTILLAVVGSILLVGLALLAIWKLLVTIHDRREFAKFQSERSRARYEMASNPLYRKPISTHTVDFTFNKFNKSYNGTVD

On to `CC[C@H](C)[C@@H]1NC(=O)[C@@H](NC(=O)CNC(=O)[C@H](CCCCN)NC(=O)[C@H](CCCCN)NC(=O)[C@@H](N)CCCCN)C(C)(C)SCC(=O)NCCCC[C@@H](C(=O)N[C@@H](C)C(=O)O)NC(=O)[C@H](CCCNC(=N)N)NC(=O)[C@H](Cc2ccccc2)NC(=O)[C@H]([C@@H](C)O)NC(=O)[C@H](CC(=O)O)NC(=O)CNC(=O)[C@H](CCCNC(=N)N)NC(=O)[C@@H]2CCCN2C1=O` [Cyclic peptide 131, KKKG-(Pen)-IPRGDTFR(Lys(acetyl))A] (H-KKKG[Pen]IPRGDTFRKA-OH; linker 5-14 via X2), for which, in data set [1], the “Stability (molecule stability, residual rate of the cyclic peptide rank)” value was “A (The residual rate of the cyclic peptide is 70% or more.)”. Besides, the Kd on human integrin αvβ5 fell in the range of 50 to 100 nM.
As for `CC[C@H](C)[C@@H]1NC(=O)[C@@H](NC(=O)CNC(=O)[C@H](CCCCN)NC(=O)[C@H](CCCCN)NC(=O)[C@@H](N)CCCCN)CNC(=O)CSC(C)(C)[C@@H](C(=O)N[C@@H](C)C(=O)O)NC(=O)[C@H](CCCNC(=N)N)NC(=O)[C@H](Cc2ccccc2)NC(=O)[C@H]([C@@H](C)O)NC(=O)[C@H](CC(=O)O)NC(=O)CNC(=O)[C@H](CCCNC(=N)N)NC(=O)[C@@H]2CCCN2C1=O` [Cyclic peptide 132, KKKG(Dap(acetyl))IPRGDTFR-(Pen)-A] (H-KKKG[Dap]IPRGDTFR[Pen]A-OH; linker 5-14 via X1), the “Stability (molecule stability, residual rate of the cyclic peptide rank)” value in data set [1] is given as “A (The residual rate of the cyclic peptide is 70% or more.)”. Further, at human integrin αvβ5, the Kd was less than 50 nM.
On to `CC[C@H](C)[C@@H]1NC(=O)[C@@H](NC(=O)CNC(=O)[C@H](CCCCN)NC(=O)[C@H](CCCCN)NC(=O)[C@@H](N)CCCCN)CCNC(=O)CSC(C)(C)[C@@H](C(=O)N[C@@H](C)C(=O)O)NC(=O)[C@H](CCCNC(=N)N)NC(=O)[C@H](Cc2ccccc2)NC(=O)[C@H]([C@@H](C)O)NC(=O)[C@H](CC(=O)O)NC(=O)CNC(=O)[C@H](CCCNC(=N)N)NC(=O)[C@@H]2CCCN2C1=O` [Cyclic peptide 133, KKKG(Dab(acetyl))IPRGDTFR-(Pen)-A] (H-KKKG[Dab]IPRGDTFR[Pen]A-OH; linker 5-14 via X1), for which the “Stability (molecule stability, residual rate of the cyclic peptide rank)” value in data set [1] is “A (The residual rate of the cyclic peptide is 70% or more.)”. Further, at human integrin αvβ5, the Kd was 50 to 100 nM.
For `CC[C@H](C)[C@@H]1NC(=O)[C@@H](NC(=O)CNC(=O)[C@H](CCCCN)NC(=O)[C@H](CCCCN)NC(=O)[C@@H](N)CCCCN)CCCNC(=O)CSC(C)(C)[C@@H](C(=O)N[C@@H](C)C(=O)O)NC(=O)[C@H](CCCNC(=N)N)NC(=O)[C@H](Cc2ccccc2)NC(=O)[C@H]([C@@H](C)O)NC(=O)[C@H](CC(=O)O)NC(=O)CNC(=O)[C@H](CCCNC(=N)N)NC(=O)[C@@H]2CCCN2C1=O` [Cyclic peptide 134, KKKG(Orn(acetyl))IPRGDTFR-(Pen)-A] (H-KKKG[Orn]IPRGDTFR[Pen]A-OH; linker 5-14 via X1), in that order: “A (The residual rate of the cyclic peptide is 70% or more.)” and less than 50 nM.
On to `CC[C@H](C)[C@@H]1NC(=O)[C@@H](NC(=O)CNC(=O)[C@H](CCCCN)NC(=O)[C@H](CCCCN)NC(=O)[C@@H](N)CCCCN)CCCCNC(=O)CSC(C)(C)[C@@H](C(=O)N[C@@H](C)C(=O)O)NC(=O)[C@H](CCCNC(=N)N)NC(=O)[C@H](Cc2ccccc2)NC(=O)[C@H]([C@@H](C)O)NC(=O)[C@H](CC(=O)O)NC(=O)CNC(=O)[C@H](CCCNC(=N)N)NC(=O)[C@@H]2CCCN2C1=O` [Cyclic peptide 135, KKKG(Lys(acetyl))IPRGDTFR-(Pen)-A] (H-KKKGKIPRGDTFR[Pen]A-OH; linker 5-14 via X1), for which the “Stability (molecule stability, residual rate of the cyclic peptide rank)” value in data set [1] was “A (The residual rate of the cyclic peptide is 70% or more.)”. For the same molecule, the Kd on human integrin αvβ5 lay within 50 to 100 nM.
As to `CC(C)[C@@H]1NC(=O)[C@@H](NC(=O)[C@H](C)NC(=O)[C@H](CCCCN)NC(=O)[C@H](CCCCN)NC(=O)[C@@H](N)CCCCN)CCNC(=O)CSC(C)(C)[C@@H](C(=O)N[C@@H](C)C(=O)O)NC(=O)[C@H](C)NC(=O)[C@H](Cc2ccccc2)NC(=O)[C@H]([C@@H](C)O)NC(=O)[C@H](CC(=O)O)NC(=O)CNC(=O)[C@H](CCCNC(=N)N)NC(=O)[C@@H]2CCCN2C1=O` [Cyclic peptide 136, KKKA(Dab(acetyl))VPRGDTFA-(Pen)-A] (H-KKKA[Dab]VPRGDTFA[Pen]A-OH; linker 5-14 via X1), in data set [1], the “Stability (molecule stability, residual rate of the cyclic peptide rank)” value is “A (The residual rate of the cyclic peptide is 70% or more.)”. The Kd at human integrin αvβ5 was less than 50 nM.
Take `CC[C@H](C)[C@@H]1NC(=O)[C@@H](NC(=O)[C@H](C)NC(=O)[C@H](CCCCN)NC(=O)[C@H](CCCCN)NC(=O)[C@@H](N)CCCCN)CCNC(=O)CSC(C)(C)[C@@H](C(=O)N[C@@H](C)C(=O)O)NC(=O)[C@H](C)NC(=O)[C@H](Cc2ccccc2)NC(=O)[C@H](CO)NC(=O)[C@H](CC(=O)O)NC(=O)CNC(=O)[C@H](CCCNC(=N)N)NC(=O)[C@@H]2CCCN2C1=O` [Cyclic peptide 137, KKKA(Dab(acetyl))IPRGDSFA-(Pen)-A] (H-KKKA[Dab]IPRGDSFA[Pen]A-OH; linker 5-14 via X1): in data set [1], the “Stability (molecule stability, residual rate of the cyclic peptide rank)” value is reported as “A (The residual rate of the cyclic peptide is 70% or more.)”. Moreover, the Kd on human integrin αvβ5 was 50 to 100 nM.
In the case of `CC[C@H](C)[C@@H]1NC(=O)[C@@H](NC(=O)CNC(=O)[C@H](CCCCN)NC(=O)[C@H](CCCCN)NC(=O)[C@@H](N)CCCCN)CCNC(=O)CSC[C@@H](C(=O)N[C@@H](C)C(=O)O)NC(=O)[C@H](CCCNC(=N)N)NC(=O)[C@H](Cc2ccccc2)NC(=O)[C@H]([C@@H](C)O)NC(=O)[C@H](CC(=O)O)NC(=O)CNC(=O)[C@H](CCCNC(=N)N)NC(=O)[C@@H]2CCCN2C1=O` [Cyclic peptide 138, KKKG(Dab(acetyl))IPRGDTFR(C)A] (H-KKKG[Dab]IPRGDTFRCA-OH; linker 5-14 via X1), in data set [1], the “Stability (molecule stability, residual rate of the cyclic peptide rank)” value is “C (The residual rate of the cyclic peptide is 30% or more and less than 50%.)”. Moreover, the Kd at human integrin αvβ5 is 50 to 100 nM.
Take `CC[C@H](C)[C@@H]1NC(=O)[C@@H](NC(=O)CNC(=O)[C@H](CCCCN)NC(=O)[C@H](CCCCN)NC(=O)[C@@H](N)CCCCN)CCCNC(=O)CSC[C@@H](C(=O)N[C@@H](C)C(=O)O)NC(=O)[C@H](CCCNC(=N)N)NC(=O)[C@H](Cc2ccccc2)NC(=O)[C@H]([C@@H](C)O)NC(=O)[C@H](CC(=O)O)NC(=O)CNC(=O)[C@H](CCCNC(=N)N)NC(=O)[C@@H]2CCCN2C1=O` [Cyclic peptide 139, KKKG(Orn(acetyl))IPRGDTFR(C)A] (H-KKKG[Orn]IPRGDTFRCA-OH; linker 5-14 via X1): the “Stability (molecule stability, residual rate of the cyclic peptide rank)” value in data set [1] is “C (The residual rate of the cyclic peptide is 30% or more and less than 50%.)”. Moreover, the Kd on human integrin αvβ5 was less than 50 nM.
As for `CC[C@H](C)[C@@H]1NC(=O)[C@@H](NC(=O)CNC(=O)[C@H](CCCCN)NC(=O)[C@H](CCCCN)NC(=O)[C@@H](N)CCCCN)CCCCNC(=O)CSC[C@@H](C(=O)N[C@@H](C)C(=O)O)NC(=O)[C@H](CCCNC(=N)N)NC(=O)[C@H](Cc2ccccc2)NC(=O)[C@H]([C@@H](C)O)NC(=O)[C@H](CC(=O)O)NC(=O)CNC(=O)[C@H](CCCNC(=N)N)NC(=O)[C@@H]2CCCN2C1=O` [Cyclic peptide 140, KKKG(Lys(acetyl))IPRGDTFR(C)A] (H-KKKGKIPRGDTFRCA-OH; linker 5-14 via X1), the “Stability (molecule stability, residual rate of the cyclic peptide rank)” value in data set [1] was “C (The residual rate of the cyclic peptide is 30% or more and less than 50%.)”. At human integrin αvβ5, the Kd was in the range of 50 to 100 nM.
Turning to `CC(C)[C@@H]1NC(=O)[C@@H](NC(=O)[C@H](CCCCN)NC(=O)[C@H](CCCCN)NC(=O)[C@@H](N)CCCCN)CCNC(=O)CSC[C@@H](C(=O)O)NC(=O)[C@H](C)NC(=O)[C@H](Cc2ccccc2)NC(=O)[C@H]([C@@H](C)O)NC(=O)[C@H](CC(=O)O)NC(=O)CNC(=O)[C@H](CCCNC(=N)N)NC(=O)[C@@H]2CCCN2C1=O` [Cyclic peptide 141, KKK(Dab(acetyl))VPRGDTFA(C)] (H-KKK[Dab]VPRGDTFAC-OH; linker 4-13 via X1), the “Stability (molecule stability, residual rate of the cyclic peptide rank)” value in data set [1] is “C (The residual rate of the cyclic peptide is 30% or more and less than 50%.)”. In addition, the Kd on human integrin αvβ5 is less than 50 nM.
Turning to `CC(C)[C@@H]1NC(=O)[C@@H](NC(=O)[C@H](C)NC(=O)[C@H](CCCCN)NC(=O)[C@H](CCCCN)NC(=O)[C@@H](N)CCCCN)CCNC(=O)CSC[C@@H](C(=O)N[C@@H](C)C(=O)O)NC(=O)[C@H](C)NC(=O)[C@H](Cc2ccccc2)NC(=O)[C@H]([C@@H](C)O)NC(=O)[C@H](CC(=O)O)NC(=O)CNC(=O)[C@H](CCCNC(=N)N)NC(=O)[C@@H]2CCCN2C1=O` [Cyclic peptide 142, KKKA(Dab(acetyl))VPRGDTFA(C)A] (H-KKKA[Dab]VPRGDTFACA-OH; linker 5-14 via X1), in data set [1], the “Stability (molecule stability, residual rate of the cyclic peptide rank)” value was “C (The residual rate of the cyclic peptide is 30% or more and less than 50%.)”. At human integrin αvβ5, the Kd was less than 50 nM.
As for `CC(C)[C@@H]1NC(=O)[C@@H](NC(=O)[C@H](CCCCN)NC(=O)[C@H](CCCCN)NC(=O)[C@@H](N)CCCCN)CCNC(=O)CSC[C@@H](C(=O)O)NC(=O)[C@H](Cc2ccccc2)NC(=O)[C@H](CC(N)=O)NC(=O)[C@H](CC(=O)O)NC(=O)CNC(=O)[C@H](CCCNC(=N)N)NC(=O)[C@@H]2CCCN2C1=O` [Cyclic peptide 143, KKK(Dab(acetyl))VPRGDNF(C)] (H-KKK[Dab]VPRGDNFC-OH; linker 4-12 via X1), the “Stability (molecule stability, residual rate of the cyclic peptide rank)” value in data set [1] was “C (The residual rate of the cyclic peptide is 30% or more and less than 50%.)”. Further, the Kd on human integrin αvβ5 is less than 50 nM.
